Laboratory results reported in US9492471B2, “Methods of treating a disease or disorder associated with Bruton'S Tyrosine Kinase” (Celgene Avilomics Research, Inc., priority 2013, dated 2016).
Like-named read-outs stand apart in the source and are kept apart here.

Legend:
Assay in all cases: HotSpot kinase profiling
Assay type in all cases: biochemical
IGF1R = target: T1, IGF1R (Homo sapiens, UniProt P08069)
T1 construct: purchased Reaction Biology Corp
Summary of the method: (§1)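 Percent inhibition, averaged when run more than once and referenced to a DMSO negative control, came from a radioactive filter-binding readout on P81 paper. Reactions of kinase with freshly made substrate and cofactors ran for 2 h at room temperature.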

WNK3 = target: T2, WNK3 (Homo sapiens, UniProt Q9BYP7)
T2 construct: purchased Reaction Biology Corp
Summary of the method: as §1

PLK1 = target: T3, PLK1 (Homo sapiens, UniProt P53350)
T3 construct: purchased Reaction Biology Corp
Summary of the method: as §1

TTBK2 = target: T4, TTBK2 (Homo sapiens, UniProt Q6IQ55)
T4 construct: purchased Reaction Biology Corp
Summary of the method: as §1

PKN2/PRK2 = target: T5, PKN2/PRK2 (Homo sapiens, UniProt Q16513)
T5 construct: purchased Reaction Biology Corp
Summary of the method: as §1

P70S6K/RPS6KB1 = target: T6, P70S6K/RPS6KB1 (Homo sapiens, UniProt P23443)
T6 construct: purchased Reaction Biology Corp
Summary of the method: as §1

MST4 = target: T7, MST4 (Homo sapiens, UniProt Q9P289)
T7 construct: purchased Reaction Biology Corp
Summary of the method: as §1

SIK2 = target: T8, SIK2 (Homo sapiens, UniProt Q9H0K1)
T8 construct: purchased Reaction Biology Corp
Summary of the method: as §1

PKCtheta = target: T9, PKCtheta (Homo sapiens, UniProt Q04759)
T9 construct: purchased Reaction Biology Corp
Summary of the method: as §1

c-MET = target: T10, c-MET (Homo sapiens, UniProt P08581)
T10 construct: purchased Reaction Biology Corp
Summary of the method: as §1

PAK1 = target: T11, PAK1 (Homo sapiens, UniProt Q13153)
T11 construct: purchased Reaction Biology Corp
Summary of the method: as §1

RSK4 = target: T12, RSK4 (Homo sapiens, UniProt Q9UK32)
T12 construct: purchased Reaction Biology Corp
Summary of the method: as §1

PKD2/PRKD2 = target: T13, PKD2/PRKD2 (Homo sapiens, UniProt Q9BZL6)
T13 construct: purchased Reaction Biology Corp
T13 sequence (Q9BZL6 1-878): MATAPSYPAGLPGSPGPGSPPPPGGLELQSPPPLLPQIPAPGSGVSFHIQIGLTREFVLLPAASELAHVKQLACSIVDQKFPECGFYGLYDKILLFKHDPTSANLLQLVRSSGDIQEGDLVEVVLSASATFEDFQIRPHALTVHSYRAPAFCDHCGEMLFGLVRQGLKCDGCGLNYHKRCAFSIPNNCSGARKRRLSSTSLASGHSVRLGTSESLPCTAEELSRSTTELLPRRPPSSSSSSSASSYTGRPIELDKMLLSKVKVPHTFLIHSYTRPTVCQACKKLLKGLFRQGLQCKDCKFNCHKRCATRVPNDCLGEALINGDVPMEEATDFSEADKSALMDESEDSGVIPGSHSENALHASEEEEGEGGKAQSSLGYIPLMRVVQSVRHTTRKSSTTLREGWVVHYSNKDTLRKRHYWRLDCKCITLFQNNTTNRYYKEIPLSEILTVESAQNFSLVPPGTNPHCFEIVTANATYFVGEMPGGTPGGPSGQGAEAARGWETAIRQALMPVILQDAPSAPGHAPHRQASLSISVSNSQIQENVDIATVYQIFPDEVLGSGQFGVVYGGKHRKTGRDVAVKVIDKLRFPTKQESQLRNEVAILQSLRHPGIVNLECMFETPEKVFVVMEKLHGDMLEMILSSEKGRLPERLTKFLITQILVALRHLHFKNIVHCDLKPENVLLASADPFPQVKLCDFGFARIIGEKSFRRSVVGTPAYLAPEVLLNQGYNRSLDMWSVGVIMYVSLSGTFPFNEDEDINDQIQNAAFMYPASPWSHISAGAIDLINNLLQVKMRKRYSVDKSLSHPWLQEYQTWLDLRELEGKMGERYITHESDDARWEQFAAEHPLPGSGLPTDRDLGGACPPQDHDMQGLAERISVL
Summary of the method: as §1

[1] = read-out: % Enzyme Activity (relative to DMSO controls) Run 1
[2] = read-out: % Enzyme Activity (relative to DMSO controls) Run 2

T9 sequence (Q04759 whole entry): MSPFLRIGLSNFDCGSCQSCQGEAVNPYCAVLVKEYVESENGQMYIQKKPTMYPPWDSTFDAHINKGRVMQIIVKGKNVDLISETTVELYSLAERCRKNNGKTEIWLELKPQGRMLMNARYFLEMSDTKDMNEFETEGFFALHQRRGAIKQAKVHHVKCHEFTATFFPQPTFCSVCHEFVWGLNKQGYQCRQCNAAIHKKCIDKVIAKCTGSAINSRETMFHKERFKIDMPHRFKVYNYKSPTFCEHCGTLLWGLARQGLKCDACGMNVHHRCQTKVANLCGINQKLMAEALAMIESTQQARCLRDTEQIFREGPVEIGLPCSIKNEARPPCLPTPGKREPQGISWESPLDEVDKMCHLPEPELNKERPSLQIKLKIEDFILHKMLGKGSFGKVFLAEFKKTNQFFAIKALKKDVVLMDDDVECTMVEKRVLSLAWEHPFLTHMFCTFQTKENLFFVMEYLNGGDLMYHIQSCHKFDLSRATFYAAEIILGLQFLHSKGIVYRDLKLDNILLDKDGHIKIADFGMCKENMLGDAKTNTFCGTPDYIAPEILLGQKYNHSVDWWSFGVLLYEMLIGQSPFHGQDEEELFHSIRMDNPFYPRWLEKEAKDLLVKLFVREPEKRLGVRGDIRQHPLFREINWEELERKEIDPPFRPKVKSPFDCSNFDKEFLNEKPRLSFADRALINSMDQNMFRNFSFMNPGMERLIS
T3 sequence (P53350 whole entry): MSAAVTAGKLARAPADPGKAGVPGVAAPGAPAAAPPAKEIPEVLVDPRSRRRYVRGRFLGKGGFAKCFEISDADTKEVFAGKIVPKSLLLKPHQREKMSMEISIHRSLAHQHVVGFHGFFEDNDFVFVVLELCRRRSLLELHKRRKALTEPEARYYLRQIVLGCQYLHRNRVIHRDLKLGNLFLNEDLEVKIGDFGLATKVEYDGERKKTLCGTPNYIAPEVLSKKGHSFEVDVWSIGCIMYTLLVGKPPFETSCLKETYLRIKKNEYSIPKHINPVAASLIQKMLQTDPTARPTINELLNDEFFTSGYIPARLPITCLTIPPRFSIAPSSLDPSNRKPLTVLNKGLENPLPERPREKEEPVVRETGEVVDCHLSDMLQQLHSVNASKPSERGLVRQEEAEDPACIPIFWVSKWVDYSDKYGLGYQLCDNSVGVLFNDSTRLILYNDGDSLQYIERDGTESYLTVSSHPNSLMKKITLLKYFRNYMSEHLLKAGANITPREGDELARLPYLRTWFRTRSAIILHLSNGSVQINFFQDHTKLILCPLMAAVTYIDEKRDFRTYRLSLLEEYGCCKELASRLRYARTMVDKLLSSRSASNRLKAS
T11 sequence (Q13153 whole entry): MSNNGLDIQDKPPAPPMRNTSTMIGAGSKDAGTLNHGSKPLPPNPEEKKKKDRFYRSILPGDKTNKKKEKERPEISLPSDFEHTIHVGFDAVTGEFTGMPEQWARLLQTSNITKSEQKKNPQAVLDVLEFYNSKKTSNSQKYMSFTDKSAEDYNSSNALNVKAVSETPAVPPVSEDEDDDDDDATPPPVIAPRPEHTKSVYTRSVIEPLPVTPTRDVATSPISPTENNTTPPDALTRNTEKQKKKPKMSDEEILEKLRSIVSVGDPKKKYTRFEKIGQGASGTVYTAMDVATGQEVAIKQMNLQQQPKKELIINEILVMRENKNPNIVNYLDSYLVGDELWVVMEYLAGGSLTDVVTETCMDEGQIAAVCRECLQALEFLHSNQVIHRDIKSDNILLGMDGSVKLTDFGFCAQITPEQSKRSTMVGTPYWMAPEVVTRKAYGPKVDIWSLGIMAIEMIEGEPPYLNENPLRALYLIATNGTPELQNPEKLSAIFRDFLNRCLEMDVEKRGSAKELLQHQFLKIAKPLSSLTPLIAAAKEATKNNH
T1 sequence (P08069 31-1367): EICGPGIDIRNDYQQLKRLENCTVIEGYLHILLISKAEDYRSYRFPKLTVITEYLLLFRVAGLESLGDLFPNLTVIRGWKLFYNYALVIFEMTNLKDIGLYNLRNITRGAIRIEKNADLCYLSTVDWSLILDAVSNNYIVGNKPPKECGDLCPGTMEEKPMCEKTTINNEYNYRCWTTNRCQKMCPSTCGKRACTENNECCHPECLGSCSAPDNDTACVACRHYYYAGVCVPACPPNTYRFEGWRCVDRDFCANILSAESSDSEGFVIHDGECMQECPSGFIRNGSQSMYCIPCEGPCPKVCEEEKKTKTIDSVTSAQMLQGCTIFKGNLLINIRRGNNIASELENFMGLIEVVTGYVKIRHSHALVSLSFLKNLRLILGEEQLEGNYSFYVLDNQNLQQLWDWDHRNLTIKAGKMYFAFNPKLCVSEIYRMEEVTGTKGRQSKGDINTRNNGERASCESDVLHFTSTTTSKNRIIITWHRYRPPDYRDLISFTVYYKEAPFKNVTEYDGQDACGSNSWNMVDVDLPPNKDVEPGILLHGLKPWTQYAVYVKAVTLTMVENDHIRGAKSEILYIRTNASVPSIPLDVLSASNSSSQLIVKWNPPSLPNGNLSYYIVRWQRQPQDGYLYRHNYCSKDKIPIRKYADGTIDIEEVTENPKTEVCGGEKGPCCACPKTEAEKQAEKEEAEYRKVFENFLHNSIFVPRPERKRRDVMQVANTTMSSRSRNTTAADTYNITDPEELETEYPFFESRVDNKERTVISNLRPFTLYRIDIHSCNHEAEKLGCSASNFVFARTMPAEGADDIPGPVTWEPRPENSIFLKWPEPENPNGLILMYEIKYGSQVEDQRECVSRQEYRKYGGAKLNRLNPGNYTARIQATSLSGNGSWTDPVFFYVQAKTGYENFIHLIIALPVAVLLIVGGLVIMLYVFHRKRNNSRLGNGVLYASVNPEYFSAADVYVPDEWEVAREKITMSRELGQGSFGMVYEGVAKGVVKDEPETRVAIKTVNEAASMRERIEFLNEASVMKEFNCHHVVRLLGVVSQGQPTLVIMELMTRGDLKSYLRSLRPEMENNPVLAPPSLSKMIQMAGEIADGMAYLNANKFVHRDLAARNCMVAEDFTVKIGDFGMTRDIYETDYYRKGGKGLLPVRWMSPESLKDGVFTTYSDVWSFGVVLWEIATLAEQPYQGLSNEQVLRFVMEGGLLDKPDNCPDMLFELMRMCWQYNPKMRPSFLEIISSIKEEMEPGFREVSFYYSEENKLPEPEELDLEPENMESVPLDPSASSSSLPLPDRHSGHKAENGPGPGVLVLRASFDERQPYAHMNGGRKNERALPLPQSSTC
T12 sequence (Q9UK32 whole entry): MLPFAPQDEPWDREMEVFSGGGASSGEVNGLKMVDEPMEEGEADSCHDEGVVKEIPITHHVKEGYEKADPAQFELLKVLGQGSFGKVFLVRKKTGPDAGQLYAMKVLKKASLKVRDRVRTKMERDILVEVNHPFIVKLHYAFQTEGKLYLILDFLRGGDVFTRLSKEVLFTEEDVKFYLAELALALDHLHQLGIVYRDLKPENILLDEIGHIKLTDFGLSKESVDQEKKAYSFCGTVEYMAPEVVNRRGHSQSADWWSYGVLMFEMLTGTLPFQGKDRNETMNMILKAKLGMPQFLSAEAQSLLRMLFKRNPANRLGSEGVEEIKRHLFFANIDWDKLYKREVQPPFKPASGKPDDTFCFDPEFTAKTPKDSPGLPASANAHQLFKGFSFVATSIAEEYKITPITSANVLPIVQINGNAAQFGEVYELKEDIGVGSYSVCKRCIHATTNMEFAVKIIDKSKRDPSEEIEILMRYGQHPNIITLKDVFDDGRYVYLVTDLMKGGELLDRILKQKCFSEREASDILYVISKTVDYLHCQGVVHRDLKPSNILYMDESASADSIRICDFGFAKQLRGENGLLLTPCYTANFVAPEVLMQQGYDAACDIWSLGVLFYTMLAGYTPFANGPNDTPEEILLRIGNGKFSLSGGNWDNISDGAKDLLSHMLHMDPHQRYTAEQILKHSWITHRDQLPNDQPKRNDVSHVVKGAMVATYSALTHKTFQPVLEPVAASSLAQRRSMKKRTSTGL
T6 sequence (P23443 whole entry): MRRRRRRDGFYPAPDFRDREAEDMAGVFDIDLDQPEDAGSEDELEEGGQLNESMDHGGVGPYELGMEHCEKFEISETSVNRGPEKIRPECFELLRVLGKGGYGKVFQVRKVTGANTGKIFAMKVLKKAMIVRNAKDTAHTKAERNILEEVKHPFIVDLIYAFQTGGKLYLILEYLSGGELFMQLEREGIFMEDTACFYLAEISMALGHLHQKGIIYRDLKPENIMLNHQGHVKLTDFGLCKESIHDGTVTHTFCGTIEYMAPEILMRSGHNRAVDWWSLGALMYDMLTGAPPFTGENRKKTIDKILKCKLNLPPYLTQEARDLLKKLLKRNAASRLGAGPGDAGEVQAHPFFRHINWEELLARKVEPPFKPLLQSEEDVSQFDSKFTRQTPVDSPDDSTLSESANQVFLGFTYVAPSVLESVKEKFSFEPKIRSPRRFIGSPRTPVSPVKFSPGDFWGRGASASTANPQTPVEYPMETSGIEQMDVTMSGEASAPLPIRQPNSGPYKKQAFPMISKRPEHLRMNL
T7 sequence (Q9P289 whole entry): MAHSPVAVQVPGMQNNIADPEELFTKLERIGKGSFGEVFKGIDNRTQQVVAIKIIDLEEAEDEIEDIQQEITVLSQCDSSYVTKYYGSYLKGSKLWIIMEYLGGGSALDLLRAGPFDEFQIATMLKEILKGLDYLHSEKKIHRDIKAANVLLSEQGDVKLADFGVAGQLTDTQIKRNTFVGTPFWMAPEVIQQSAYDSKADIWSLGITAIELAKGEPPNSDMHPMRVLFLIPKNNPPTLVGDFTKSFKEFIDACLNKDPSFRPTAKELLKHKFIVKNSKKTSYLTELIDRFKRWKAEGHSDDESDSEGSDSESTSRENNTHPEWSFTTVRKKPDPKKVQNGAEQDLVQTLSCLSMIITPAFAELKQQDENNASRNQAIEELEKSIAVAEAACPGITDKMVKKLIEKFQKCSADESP

In the case of `C=CC(=O)Nc1cccc(Nc2nc(Nc3ccc(OCCOC)c(F)c3)ncc2F)c1` [Compound 2], the inhibition at 3 µM (IGF1R) is reported as 15.6%, the remaining activity at 3 µM (IGF1R; [1]) is reported as 82.8% and the remaining activity at 3 µM (IGF1R; [2]) is reported as 86%. The inhibition at 3 µM (WNK3) was 8.34%, the remaining activity at 3 µM (WNK3; [1]) was 91.3% and the remaining activity at 3 µM (WNK3; [2]) was 92%. For the same compound, the inhibition at 3 µM (PLK1) was 8.06%, the remaining activity at 3 µM (PLK1; [1]) was 91.1% and the remaining activity at 3 µM (PLK1; [2]) was 92.8%. It also gave an inhibition at 3 µM (TTBK2) of -0.86%, a remaining activity at 3 µM (TTBK2; [1]) of 102% and a remaining activity at 3 µM (TTBK2; [2]) of 99.7%. The inhibition at 3 µM (PKN2/PRK2) was 7.64%, the remaining activity at 3 µM (PKN2/PRK2; [1]) was 93.3% and the remaining activity at 3 µM (PKN2/PRK2; [2]) was 91.4%. The inhibition at 3 µM (P70S6K/RPS6KB1) was 16.5%, the remaining activity at 3 µM (P70S6K/RPS6KB1; [1]) was 85.9% and the remaining activity at 3 µM (P70S6K/RPS6KB1; [2]) was 81%. For the same compound, the inhibition at 3 µM (MST4) was -1.09%, the remaining activity at 3 µM (MST4; [1]) was 97.8% and the remaining activity at 3 µM (MST4; [2]) was 104%. It also gave an inhibition at 3 µM (SIK2) of 43.3%, a remaining activity at 3 µM (SIK2; [1]) of 56.3% and a remaining activity at 3 µM (SIK2; [2]) of 57.1%. It also gave an inhibition at 3 µM (PKCtheta) of 16.1%, a remaining activity at 3 µM (PKCtheta; [1]) of 83.7% and a remaining activity at 3 µM (PKCtheta; [2]) of 84.1%. It also gave an inhibition at 3 µM (c-MET) of -1.49%, a remaining activity at 3 µM (c-MET; [1]) of 103% and a remaining activity at 3 µM (c-MET; [2]) of 100%. It also gave an inhibition at 3 µM (PAK1) of 2.58%, a remaining activity at 3 µM (PAK1; [1]) of 96.3% and a remaining activity at 3 µM (PAK1; [2]) of 98.6%. The inhibition at 3 µM (RSK4) was 22.8%, the remaining activity at 3 µM (RSK4; [1]) was 77.2% and the remaining activity at 3 µM (RSK4; [2]) was 77.2%. It also gave an inhibition at 3 µM (PKD2/PRKD2) of 13.7%, a remaining activity at 3 µM (PKD2/PRKD2; [1]) of 86.4% and a remaining activity at 3 µM (PKD2/PRKD2; [2]) of 86.2%.
